Test results reported in US5639474A (Hanmi Pharm. Ind., Ltd., priority 1993, dated 1997).

Details: for Change in contents (per capsule): Initial content: cosurfactant content in soft capsule
Description: The membrane permeation property of dimethylisosorbide over the storage period at the room temperature was examined for the soft capsules prepared using dimethylisosorbide (ARLASOLVE® DMI) as a cosurfactant according to the present invention and then compared with the membrane permeation properties of ethanol, propylene glycol, Transcutol (diethylene glycol monoethyl ether) and Glycofurol (tetrahydrofurfuryl alcohol polyethylene glycol ether). The content of the cosurfactant in each soft capsule preparation was analyzed by gas chromatography. The components and their constitutional ratios in the compositions used in this experiment are given in the following Table 1 and the experiment results are given in the following Table 2.
Note: Conditions of gas chromatography for each cosurfactant
Column: Ultra 2 (Cross-linked 2% phenylmethyl silicone gun phase, 25 m×0.32 mm, thickness 0.52 μm)
Column temperature: 230° C. (Isothermal)
Detector: FID (Temperature: 270° C.)
Injection temperature: 275° C.
Carrier gas: He (Partition ratio 80:1)
Internal standard: Octyl alcohol
Column: HP-20M (Carbowax 20M) (25 m×0.32 mm, film thickness 0.3 μm)
Column temperature: 30° C. (Isothermal)
Detector: FID (Temperature: 200° C.)
Injection temperature: 150° C.
Internal standard: Diethyl ether
Column temperature: 180° C. (Isothermal)
Detector: FID (Temperature: 240° C.)
Injection temperature: 240° C.
Internal standard: Pentadecanoic acid methyl ester
Column: Ultra 2 (Cross-linked 5% phenylmethyl silicone gun phase, 25 m×0.32 mm, thickness 0.52 μm)
Injection temperature: 270° C.
Detector: FID (Temperature: 270° C.) p1 Injection temperature: 270° C.
Internal standard: Dimethylisosorbide

| Change in contents (per capsule): Initial content | Change in contents (per capsule): Storage period 2 days (room temperature) | Change in contents (per capsule): Storage period 5 days (room temperature, 5 days) | Molecule | Change in contents (per capsule): Storage period 14 days (room temperature) |
| --- | --- | --- | --- | --- |
| 19.8 | 3.6 | 0.9 | CC(O)CO (stereo not drawn) [Propylene glycol, propylene glycol] |  |
| 19.8 | 7.3 |  | CCOCCOCCO [Transcutol, diethylene glycol monoethyl ether] | 2.7 |

| Molecule | Change in contents (per capsule): Initial content | Change in contents (per capsule): Storage period 2 days (room temperature) | Change in contents (per capsule): Storage period 5 days (room temperature, 5 days) | Change in contents (per capsule): Storage period 14 days (room temperature) |
| --- | --- | --- | --- | --- |
| tetrahydrofurfuryl alcohol polyethylene glycol ether [Glycofurol] | 19.8 | 8.2 |  | 3.2 |
